# Measured values taken from patent US20090215732A1, “COMBINATION OF COMPOUNDS, WHICH CAN BE USED IN THE TREATMENT OF RESPIRATORY DISEASES, ESPECIALLY CHRONIC OBSTRUCTIVE PULMONARY DISEASE (COPD) AND ASTHMA” (priority 2005, published 2009).
# Assay: Estimated solubility of the salt in organic solvents
# Assay type: physicochemical
# Protocol: (b) The Form B salt described in (a) above was also prepared by dissolving, in a vial, 20% w of a sample of the benzoate salt prepared by the method of Example 1(b) (Form A) in a solvent such as methanol (>20 mg/ml), ethanol (>20 mg/ml), n-propanol (>20 mg/ml), isopropanol (8.5 mg/ml) or acetone (9.6 mg/ml). The figures in brackets indicate the estimated solubility of the salt in these solvents. The vial was then sealed and the suspension was homogenised at ambient temperature (20° C.) using a magnet. Stirring and temperature were maintained for a period of at least 7 days after which time a sample of the material obtained was dried and tested by XRPD. XRPD confirmed that there had been complete transformation of Form A to Form B.
# (a) Form B was prepared by dissolving, in a vial, 20% w of a sample of the furoate salt prepared by the method of Example 1(b) (Form A) in a solvent such as ethanol (16 mg/ml) or 2-butanol (8 mg/ml). The figures in brackets indicate the estimated solubility of the salt in these solvents. The vial was then sealed and the suspension was homogenised at ambient temperature (20° C.) using a magnet. Stirring and temperature were maintained for a period of at least 7 days after which time a sample of the material obtained was dried and tested by XRPD. XRPD confirmed that there had been complete transformation of Form A to Form B.
structure (smiles),measurement,setting,value
"CC(=O)Nc1ccc(O)cc1OC[C@@](C)(O)CNC1CCN(Cc2ccc(Cl)cc2)CC1.O=C(O)c1ccccc1 [Example 1(b), N-{2-[((2S)-3-{[1-(4-chlorobenzyl)piperidin-4-yl]amino}-2-hydroxy-2-methylpropyl)oxy]-4-hydroxyphenyl}acetamide benzoate (1:1 salt), Form A]",estimated solubility of the salt,solvent acetone,9.6 mg/mL
same,estimated solubility of the salt,solvent ethanol,> 20 mg/mL
same,estimated solubility of the salt,solvent isopropanol,8.5 mg/mL
same,estimated solubility of the salt,solvent methanol,> 20 mg/mL
same,estimated solubility of the salt,solvent n-propanol,> 20 mg/mL
"CC(=O)Nc1ccc(O)cc1OC[C@@](C)(O)CNC1CCN(Cc2ccc(Cl)cc2)CC1.O=C(O)c1ccco1 [Example 1(c), N-{2-[((2S)-3-{[1-(4-chlorobenzyl)piperidin-4-yl]amino}-2-hydroxy-2-methylpropyl)oxy]-4-hydroxyphenyl}acetamide furoate (1:1 salt), Form A]",estimated solubility of the salt,solvent 2-butanol,8 mg/mL
same,estimated solubility of the salt,solvent ethanol,16 mg/mL
